Entries after “also recorded” stand apart in the source; their conditions may differ.
Legend:
[1] = system: TH protein in human monocytes; test: TH Bio-ELISA on lysates of treated monocytes; type: cell-based; settings: healthy donor monocytes, 4 hours; TNFα 17 ng/ml, IL6 17 ng/ml, XPro1595 50 ng/ml
Method: Adherent cells in culture were lifted using 0.02% EDTA in PBS, diluted with 5 volumes of PBS, and centrifuged at 100×g. Non-adherent cells (PC12) were centrifuged at 100×g for 5 minutes at room temperature, and cell pellets were washed 3 times with 5 volumes of sterile PBS. Primary macrophages and primary murine neuron cultures were washed thrice with ice-cold PBS, on ice. Cell pellets and adherent primary cells were then lysed in ice-cold lysis buffer (10 mM NaCl, 10% glycerol (v/v), 1 mM EDTA, 1 mM EGTA, and HEPES 20 mM, pH 7.6), with Triton X-100 added to a final concentration of 1%, containing 1× protease inhibitor cocktail (Millipore-Sigma, 539131) for one hour at 4° C. with rotation. Resulting lysate was centrifuged at 12,000×g for 15 minutes at 4° C. Supernatant was set aside for protein quantification by Lowry assay (Biorad, 5000112) and the remainder was stored at −80° C. until use for downstream assays.
Antibodies used for ELISA are described in Table 4. […]
Duplicate standard and sample wells were averaged, and background-subtracted based on blank wells. The concentration of TH for each experimental group was calculated using a quadratic curve equation calculated in Graphpad Prism 8, then normalized to total protein concentration per sample as calculated using the Lowry assay. […]

[2] = system: CD14+ monocytes; test: Flow cytometry count of TH+ monocytes after in vitro treatment; type: cell-based, human; settings: 4 hours, TNFα 17 ng/ml; for number of TH+ monocytes, fold change relative to vehicle: healthy donor monocytes, 2 million per well, TPA 100 ng/ml, IL6 17 ng/ml, XPro1595 50 ng/ml, n=3 per group
Method: Monocytes were isolated from total PBMCs prepared as described above^51 using negative selection (Biolegend, 480048) per manufacturer's instructions. Total PBMCs were Fc-blocked to reduce nonspecific binding, followed by incubations with biotin-conjugated antibody cocktail containing antibodies against all subsets except CD14 (negative selection), followed by incubation with magnetic-Avidin beads, allowing all subsets other than CD14+ monocytes to be bound to the magnet. Monocyte purity/enrichment was routinely verified to confirm that the final cell population was greater than 95% pure CD14+ cells (FIG. S2). CD14+ monocytes were collected from the supernatant fraction, washed, counted and density adjusted such that 2 million CD14+ monocytes were seeded per well (FIG. 5A) and treated for 4 hours with vehicle, TPA (100 ng/ml, Biolegend, 755802)^7, TNFα (17 ng/mL, Biolegend, 570102)^61, XPro1595 (50 ng/ml), or IL6 (17 ng/mL) in an ultra-low-adherence 6-well plate (Corning, 3471) to prevent adherence. Suspended cells from each treatment group were aspirated and placed in a 15 ml conical tube, with any remaining adherent cells detached by incubation with 700 uL Accumax solution for 3 minutes (Innovative Cell Technologies, AM105) and added to suspended cells. After pelleting cells by centrifugation (3 minutes×100 g, room temperature), cells were assayed by either flow cytometry^51 or lysed for ELISA as stated above (“Preparation of cell lysates”).
As previously published^51, cells for flow cytometry were fixed and permeabilized (eBioscience, 88-8824-00), and stained for intracellular marker TH (Millipore-Sigma, AB152, 1:100) followed by a species-specific secondary (anti-Rabbit BV421, BD, 565014). After resuspending the sample in a final volume of 250 uL PBS, 5 uL of Invitrogen CountBright Absolute Counting Beads (5000 beads/mL, Invitrogen, C36950) were added just prior to data acquisition (Sony Spectral Analyzer, SP6800). […]

[3] = system: CD14+ monocytes; test: Intracellular flow cytometry for Ki67 (cell proliferation); type: cell-based, human; settings: TNFα treated monocytes
Method: To control for donor variability, identical quantities of counting beads were added as a reference. The number of TH+ monocytes was quantified by flow cytometry (FIG. 6B, left) in two experimental groups: TPA-treated and TNFα-treated. Monocytes in each condition were gated to isolate single cells expressing TH (FIG. 6B). […] A possible mechanism for this observation is either monocyte proliferation during the treatment period or an altered monocyte phenotype in response to TNFα, with no change in total number of monocytes. In other words, following TNFα treatment, TH+ monocytes may either be increasing in number (proliferation) or existing monocytes upregulate TH expression and become TH+ (phenotypic change). While a four-hour exposure to TNFα is an insufficient time period to induce proliferative events in immune cells^74, these possibilities could not be confidently ruled out without additional analyses. Therefore, monocyte proliferation was quantified by comparing the total number of monocytes per microliter of untreated vs. TNFα treated experimental group. […] A more rigorous approach was conducted to assess Ki67 expression as a measure of cell proliferation^87. […] While this finding explains our earlier observation of increased numbers of TH+ cells, the potential phenotypic shift following TNFα mediated immune stimulation was an unpredicted and novel finding.

[4] = system: monocytes; test: Monocyte viability at different TNFα treatment durations; type: cell-based, human
Method: There is strong evidence in the literature for increased TNFα in PD^27,34-36 including in the brain, cerebrospinal fluid, and serum of Parkinson's patients^27 as well as in Parkinsonian mice^37,38. […] Therefore, the hypothesis that ex vivo stimulation of monocytes from healthy subjects with TNFα stimulates TH expression was tested, as measured by changes in the number of TH-expressing monocytes, and/or the amount of TH per monocyte. Flow cytometry was employed to address the former, and bio-ELISA to address the latter. Two million monocytes isolated from whole blood of healthy donors were treated for 4 hours with tissue plasminogen activator (TPA, 100 ng/ml, positive control for increased monocyte TH expression^7), TNFα (17 ng/mL)^61 and compared with monocytes treated with vehicle (FIG. 6A). Monocytes were assayed for TH expression by two complementary methods: flow cytometry^51 (FIG. 6B-F) and ELISA (FIG. 6G-H). It is noted that because a prolonged TNFα exposure can induce cell toxicity^82-86, multiple treatment durations were tested. […] Therefore, a 4-hour treatment strategy was selected in this study.

Substance	TH concentration (picogram per milligram total protein) relative to vehicle [1]	number of TH+ monocytes, fold change relative to vehicle [2]	total number of monocytes per microliter, untreated vs. treated [2]	Ki67 expression relative to vehicle-treated controls [3]	cell viability ([4]; 4-hour TNFα (17 ng/ml) treatment)	cell viability ([4]; longer TNFα exposure (more than 4 hours))
IL6: interleukin-6 (IL6), a cytokine with pleiotropic effects	Neither IL6 nor IL6+XPro1595 significantly increased TH quantity	no significant change in the number of TH+ monocytes				
TNFα	significantly increased the amount of TH protein; also recorded: significantly increases	significant increases in TH-expressing monocytes relative to vehicle	unchanged	no change in Ki67 expression	minimal effect on cell viability	substantially decreased cell viability

Reference: patent publication US20240345090A1, “EARLY DETECTION OF INNATE IMMUNE DYSFUNCTION AND TREATMENT OF CONDITIONS ASSOCIATED THEREWITH” (UNIVERSITY OF FLORIDA RESEARCH FOUNDATION, INCORPORATED, priority 2021, published 2024)
